The values below come from PMC11620482, “Phase 1 drug-drug interaction study to assess the effect of CYP3A4 inhibition and pan-CYP induction on the pharmacokinetics and safety of fosmanogepix in healthy participants” (Antimicrobial Agents and Chemotherapy, 2024).

A short description of data set [1]: Safety and tolerability (adverse events, laboratory findings), phase 1 DDI study. On the procedure: Participants were also excluded if they used any prescription medication (except female contraception) and any over-the-counter medications/supplements within 14 days and 7 days prior to the first admission, respectively.
In both cohorts, FMGX was administered as a 3-hour IV infusion twice a day (BID, dosing interval: […]). All participants received FMGX on 2 days, once before a washout period (minimum 14 days) and once after the washout. […] The study consisted of a screening phase [days −28 to −1 (admission)], assessment phase (cohort 1: days −1 to 31; cohort 2: days −1 to 34), and follow-up phase (cohort 1: day 38 ± 1; cohort 2: day 41 ± 1). Participants in both cohorts had in-clinic stays for two periods: cohort 1 [days −1 to 4 (morning) and days 17 to 31 (morning)], cohort 2 [days −1 to 4 (morning) and day 23 to 34 (morning)], and at home dosing for two periods: cohort 1 (days 15 to 17) and cohort 2 (days 15 to 23).
Safety was assessed by evaluating the frequency of adverse events (AEs) recorded from the first admission (day −1) until completion of the follow-up visit (day 38 ± 1 in cohort 1; day 41 ± 1 in cohort 2). All AEs were classified per the Medical Dictionary for Regulatory Activities (MedDRA v22.1). The investigator ascertained relatedness to study the drug administration.
An analysis of variance (ANOVA) model was used to analyze the natural log-transformed primary PK parameters while the secondary PK parameters were not subjected to inferential statistical analysis. For each cohort, 18 participants were included to ensure at least 16 completed all assessments, as this was considered adequate to evaluate PK, safety, and tolerability. Thus, a sample size of 36 was considered sufficient to assess primary and secondary objectives. […] The PK analysis set included all participants who received at least one dose of FMGX and had adequate plasma concentration data available for PK analysis.

Data set [2] has as its system Candida, Coccidioides, Cryptococcus, and Aspergillus spp. To be noted: cited from earlier work.
Data set [3] concerns CYP450 enzymes. The following applies: cited from earlier work.
Data set [4] concerns human CYPs. To be noted: concentrations up to 30 µM in vitro; ref data on file; cited from earlier work.
Data set [5] is described as follows: Plasma pharmacokinetics of MGX and FMGX (noncompartmental analysis), phase 1 fixed-sequence DDI study with itraconazole or rifampin. The format is in vivo, human. To be noted: for FMGX AUC(0-23) / FMGX AUC(0-t) / FMGX Cmax / FMGX Tmax / FMGX AUC(inf) / FMGX CL / FMGX Vz / FMGX t½ / FMGX λz: D1; for FMGX AUC(0-23) / FMGX AUC(0-t) / FMGX Cmax / FMGX AUC(inf) / FMGX CL / FMGX Vz / FMGX t½ / FMGX λz: geometric mean (geometric %CV); for FMGX Tmax: median (range). The procedure:
In cohort 1, MGX plasma samples were collected at specified time points daily on days 1–4, once every 2 days on days 6–14, daily for 3 days from days 18 to 20, once every 2 days from days 21 to 29, and then on day 31, while itraconazole samples were collected at specified time points on days 19, 25, and 31. […] PK parameters were calculated using noncompartmental analysis from the plasma concentration-time data for MGX and FMGX. Primary PK parameters were maximum observed plasma concentration (Cmax), AUC from time 0 to infinity (AUC0-inf), and AUC up to time t (AUC0-t, where t was the last time point with concentrations above the lower limit of quantitation). […] Secondary PK parameters were time to attain Cmax (Tmax), AUC from time 0 to 23 hours (AUC0-23), terminal elimination half-life after the last dosing on the day (t1/2), clearance (CL), volume of distribution at terminal phase (Vz), and terminal phase rate constant after the last dosing on the day (λz).

[6] abbreviates: one participant, cohort 1, considered related to itraconazole, days 31 through 70.
Where [7] appears, read: FMGX only 500 mg BID IV, Cohort 1, n = 16.
The mark [8] stands for this setting: FMGX only 500 mg BID IV, Cohort 1, n=12.
[9] abbreviates: FMGX only 1000 mg BID IV, Cohort 2, n = 17.

SMILES strings stand for the structures. Marks after values point to notes of the source that are not given here.

In the case of `CCC(C)n1ncn(-c2ccc(N3CCN(c4ccc(OCC5COC(Cn6cncn6)(c6ccc(Cl)cc6Cl)O5)cc4)CC3)cc2)c1=O` (stereo not shown) [ITR, itraconazole, reference compound], in data set [1] (setting [6]), the “Increase in alanine transaminase (ALT)” value is ~ 8 × ULN and the “Increase in aspartate transaminase (AST)” value is ~ 11 × ULN. For the same compound, in data set [1] (one participant, cohort 1, day 31 to day 63), the “Increase in lactate dehydrogenase (LDH)” value was ~ 2 × ULN.

On to `Nc1c(-c2cc(Cc3ccc(COc4ccccn4)cc3)no2)ccc[n+]1COP(=O)([O-])O` [FMGX, Fosmanogepix], for which the “Efficacy in mouse models of invasive pulmonary and disseminated fungal infections” value in data set [2] is reported as “demonstrated efficacy”. Also, the “Substrate for CYP450 enzymes” value in data set [3] is “not a substrate”. In addition, the “FMGX-related AEs / all events” value in data set [1] (Cohort 1, FMGX 500 mg) is on record as 4/43. In data set [1] (Cohort 2, FMGX 1,000 mg), the “FMGX-related AEs / all events” value is given as 33/145. For the same compound, the Safety and tolerability result in data set [1] (FMGX 500 and 1,000 mg, alone or with itraconazole 200 mg or rifampin 600 mg) is “safe and well tolerated”. Further, in data set [1] (both cohorts, N = 36), the “Deaths, serious AEs (SAEs), FMGX-related withdrawals” value is on record as “No deaths, serious AEs (SAEs), or FMGX-related withdrawals” and the “Participants reporting FMGX-related AEs, n (%)” value is 12 (33.3%). For the same compound, the “AEs considered related to FMGX, number of events” value in data set [1] (of all 188 events, both cohorts) is listed as 37. In addition, the “Reversible or time-dependent inhibition of human CYPs” value in data set [4] is listed as “No reversible or time-dependent inhibition”. In addition, in data set [5] (setting [7]), the “FMGX AUC(0-23)” value is recorded as 9945 (16.5) hr×ng/mL, the “FMGX AUC(0-t)” value was 9945 (16.5) hr×ng/mL, the “FMGX Cmax” value is 1520 (18.6) ng/mL and the “FMGX Tmax” value was 10.5 (0.50 – 12.0) hr. In addition, in data set [5] (setting [8]), the “FMGX AUC(inf)” value is on record as 10191 (18.3)** hr×ng/mL, the “FMGX CL” value is given as 98128 (18.3)** mL/hr, the “FMGX Vz” value is reported as 53.6 (22.5)** L and the “FMGX t½” value is 0.38 (14.4)** hr. Moreover, in data set [5] (setting [8]), the “FMGX λz” value is 1.83 (14.4)** 1/hr. In addition, in data set [5] (setting [9]), the “FMGX AUC(0-23)” value is given as 18162 (22.3) hr×ng/mL, the “FMGX AUC(0-t)” value is given as 18162 (22.3) hr×ng/mL, the “FMGX AUC(inf)” value is 18163 (22.3) hr×ng/mL and the “FMGX CL” value is on record as 110117 (22.3) mL/hr. Moreover, in data set [5] (setting [9]), the “FMGX Cmax” value is 2974 (24.2) ng/mL, the “FMGX Vz” value is recorded as 69.4 (30.4) L, the “FMGX t½” value is given as 0.44 (18.4) hr and the “FMGX λz” value is on record as 1.59 (18.4) 1/hr. For the same compound, the “FMGX Tmax” value in data set [5] (setting [9]) was 9.50 (0.50 – 12.1) hr. Moreover, the “Effect of CYP3A4 inhibition or pan-CYP induction on exposure to FMGX” value in data set [5] (both cohorts) is listed as “did not affect exposure”.
